Laboratory results reported in publication doi:10.1101/2020.07.22.215434v1 (biorxiv, 2020).

Key:
Experiment in all cases: whole-cell patch clamp
Type in all cases: cell-based
hCav 3.2 [1] = biological target: T1, hCav 3.2 (Homo sapiens, UniProt O95180); conditions: tonic block, step -100 to -30 mV, 5 mM Ba2+, pH 7.4, room temperature
hCav 3.1 = hCav 3.1 (Homo sapiens, UniProt O43497); conditions: tonic block, step -100 to -30 mV, 5 mM Ba2+, pH 7.4, room temperature
hCav 3.2 [2] = biological target: T1, hCav 3.2; conditions: read-out: % inhibition at 10 μM

T1 sequence (O95180 whole entry): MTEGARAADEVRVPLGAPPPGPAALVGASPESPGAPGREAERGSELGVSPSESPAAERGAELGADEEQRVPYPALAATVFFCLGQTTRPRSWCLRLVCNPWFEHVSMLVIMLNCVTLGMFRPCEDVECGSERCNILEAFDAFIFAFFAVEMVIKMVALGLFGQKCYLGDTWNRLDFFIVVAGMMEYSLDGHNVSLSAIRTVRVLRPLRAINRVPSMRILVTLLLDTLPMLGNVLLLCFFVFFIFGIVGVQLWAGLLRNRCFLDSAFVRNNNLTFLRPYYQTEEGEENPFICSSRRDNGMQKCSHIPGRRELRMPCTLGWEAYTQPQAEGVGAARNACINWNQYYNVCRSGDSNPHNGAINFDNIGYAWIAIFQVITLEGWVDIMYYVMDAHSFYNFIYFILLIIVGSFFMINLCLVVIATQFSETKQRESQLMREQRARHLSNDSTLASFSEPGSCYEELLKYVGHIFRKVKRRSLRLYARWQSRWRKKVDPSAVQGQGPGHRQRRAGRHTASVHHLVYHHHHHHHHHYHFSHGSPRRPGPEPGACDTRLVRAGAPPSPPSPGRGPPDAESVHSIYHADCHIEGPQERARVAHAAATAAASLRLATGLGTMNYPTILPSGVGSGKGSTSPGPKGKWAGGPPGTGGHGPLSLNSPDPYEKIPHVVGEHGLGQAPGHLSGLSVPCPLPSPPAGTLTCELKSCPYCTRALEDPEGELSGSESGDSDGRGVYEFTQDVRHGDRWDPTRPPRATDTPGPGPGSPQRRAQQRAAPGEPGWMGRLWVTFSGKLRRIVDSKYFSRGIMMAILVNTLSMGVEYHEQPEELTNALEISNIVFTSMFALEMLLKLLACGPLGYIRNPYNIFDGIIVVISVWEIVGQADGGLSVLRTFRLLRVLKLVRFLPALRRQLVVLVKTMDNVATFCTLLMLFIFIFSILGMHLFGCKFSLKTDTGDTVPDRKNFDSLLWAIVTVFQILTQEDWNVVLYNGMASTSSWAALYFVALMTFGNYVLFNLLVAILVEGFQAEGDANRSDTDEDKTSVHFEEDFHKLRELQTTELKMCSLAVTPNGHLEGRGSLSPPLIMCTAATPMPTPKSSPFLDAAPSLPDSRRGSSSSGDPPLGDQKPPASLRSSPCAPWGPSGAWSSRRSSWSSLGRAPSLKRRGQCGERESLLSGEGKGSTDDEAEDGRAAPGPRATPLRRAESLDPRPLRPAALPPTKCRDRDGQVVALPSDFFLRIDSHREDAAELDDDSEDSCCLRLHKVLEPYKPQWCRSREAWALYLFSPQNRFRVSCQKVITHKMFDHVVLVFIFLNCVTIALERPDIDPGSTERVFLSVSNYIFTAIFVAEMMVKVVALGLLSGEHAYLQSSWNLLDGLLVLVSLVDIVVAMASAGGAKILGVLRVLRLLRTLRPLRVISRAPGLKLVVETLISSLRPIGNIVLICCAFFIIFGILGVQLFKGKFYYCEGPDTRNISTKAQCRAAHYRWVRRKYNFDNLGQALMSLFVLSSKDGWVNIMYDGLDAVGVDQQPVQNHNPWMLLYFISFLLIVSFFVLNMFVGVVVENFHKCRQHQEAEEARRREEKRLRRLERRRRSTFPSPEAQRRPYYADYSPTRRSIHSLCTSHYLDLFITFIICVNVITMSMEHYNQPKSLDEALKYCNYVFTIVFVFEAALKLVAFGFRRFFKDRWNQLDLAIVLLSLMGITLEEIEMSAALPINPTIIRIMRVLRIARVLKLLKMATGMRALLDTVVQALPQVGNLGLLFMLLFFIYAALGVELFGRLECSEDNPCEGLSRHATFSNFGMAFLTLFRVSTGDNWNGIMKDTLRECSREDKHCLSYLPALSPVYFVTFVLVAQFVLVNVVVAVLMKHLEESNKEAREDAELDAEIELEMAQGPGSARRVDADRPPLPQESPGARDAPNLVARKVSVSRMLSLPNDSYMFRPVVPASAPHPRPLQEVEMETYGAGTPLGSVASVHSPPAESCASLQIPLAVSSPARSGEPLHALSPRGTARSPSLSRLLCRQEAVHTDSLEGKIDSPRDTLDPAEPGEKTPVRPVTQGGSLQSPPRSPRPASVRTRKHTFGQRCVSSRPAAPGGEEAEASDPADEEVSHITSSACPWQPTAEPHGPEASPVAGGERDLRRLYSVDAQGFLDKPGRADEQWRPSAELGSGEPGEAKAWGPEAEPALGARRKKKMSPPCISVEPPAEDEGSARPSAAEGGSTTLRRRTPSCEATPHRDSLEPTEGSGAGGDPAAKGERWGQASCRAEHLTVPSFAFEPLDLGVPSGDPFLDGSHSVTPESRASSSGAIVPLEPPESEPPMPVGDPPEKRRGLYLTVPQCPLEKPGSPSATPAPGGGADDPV
Sequence of hCav 3.1 (O43497 whole entry): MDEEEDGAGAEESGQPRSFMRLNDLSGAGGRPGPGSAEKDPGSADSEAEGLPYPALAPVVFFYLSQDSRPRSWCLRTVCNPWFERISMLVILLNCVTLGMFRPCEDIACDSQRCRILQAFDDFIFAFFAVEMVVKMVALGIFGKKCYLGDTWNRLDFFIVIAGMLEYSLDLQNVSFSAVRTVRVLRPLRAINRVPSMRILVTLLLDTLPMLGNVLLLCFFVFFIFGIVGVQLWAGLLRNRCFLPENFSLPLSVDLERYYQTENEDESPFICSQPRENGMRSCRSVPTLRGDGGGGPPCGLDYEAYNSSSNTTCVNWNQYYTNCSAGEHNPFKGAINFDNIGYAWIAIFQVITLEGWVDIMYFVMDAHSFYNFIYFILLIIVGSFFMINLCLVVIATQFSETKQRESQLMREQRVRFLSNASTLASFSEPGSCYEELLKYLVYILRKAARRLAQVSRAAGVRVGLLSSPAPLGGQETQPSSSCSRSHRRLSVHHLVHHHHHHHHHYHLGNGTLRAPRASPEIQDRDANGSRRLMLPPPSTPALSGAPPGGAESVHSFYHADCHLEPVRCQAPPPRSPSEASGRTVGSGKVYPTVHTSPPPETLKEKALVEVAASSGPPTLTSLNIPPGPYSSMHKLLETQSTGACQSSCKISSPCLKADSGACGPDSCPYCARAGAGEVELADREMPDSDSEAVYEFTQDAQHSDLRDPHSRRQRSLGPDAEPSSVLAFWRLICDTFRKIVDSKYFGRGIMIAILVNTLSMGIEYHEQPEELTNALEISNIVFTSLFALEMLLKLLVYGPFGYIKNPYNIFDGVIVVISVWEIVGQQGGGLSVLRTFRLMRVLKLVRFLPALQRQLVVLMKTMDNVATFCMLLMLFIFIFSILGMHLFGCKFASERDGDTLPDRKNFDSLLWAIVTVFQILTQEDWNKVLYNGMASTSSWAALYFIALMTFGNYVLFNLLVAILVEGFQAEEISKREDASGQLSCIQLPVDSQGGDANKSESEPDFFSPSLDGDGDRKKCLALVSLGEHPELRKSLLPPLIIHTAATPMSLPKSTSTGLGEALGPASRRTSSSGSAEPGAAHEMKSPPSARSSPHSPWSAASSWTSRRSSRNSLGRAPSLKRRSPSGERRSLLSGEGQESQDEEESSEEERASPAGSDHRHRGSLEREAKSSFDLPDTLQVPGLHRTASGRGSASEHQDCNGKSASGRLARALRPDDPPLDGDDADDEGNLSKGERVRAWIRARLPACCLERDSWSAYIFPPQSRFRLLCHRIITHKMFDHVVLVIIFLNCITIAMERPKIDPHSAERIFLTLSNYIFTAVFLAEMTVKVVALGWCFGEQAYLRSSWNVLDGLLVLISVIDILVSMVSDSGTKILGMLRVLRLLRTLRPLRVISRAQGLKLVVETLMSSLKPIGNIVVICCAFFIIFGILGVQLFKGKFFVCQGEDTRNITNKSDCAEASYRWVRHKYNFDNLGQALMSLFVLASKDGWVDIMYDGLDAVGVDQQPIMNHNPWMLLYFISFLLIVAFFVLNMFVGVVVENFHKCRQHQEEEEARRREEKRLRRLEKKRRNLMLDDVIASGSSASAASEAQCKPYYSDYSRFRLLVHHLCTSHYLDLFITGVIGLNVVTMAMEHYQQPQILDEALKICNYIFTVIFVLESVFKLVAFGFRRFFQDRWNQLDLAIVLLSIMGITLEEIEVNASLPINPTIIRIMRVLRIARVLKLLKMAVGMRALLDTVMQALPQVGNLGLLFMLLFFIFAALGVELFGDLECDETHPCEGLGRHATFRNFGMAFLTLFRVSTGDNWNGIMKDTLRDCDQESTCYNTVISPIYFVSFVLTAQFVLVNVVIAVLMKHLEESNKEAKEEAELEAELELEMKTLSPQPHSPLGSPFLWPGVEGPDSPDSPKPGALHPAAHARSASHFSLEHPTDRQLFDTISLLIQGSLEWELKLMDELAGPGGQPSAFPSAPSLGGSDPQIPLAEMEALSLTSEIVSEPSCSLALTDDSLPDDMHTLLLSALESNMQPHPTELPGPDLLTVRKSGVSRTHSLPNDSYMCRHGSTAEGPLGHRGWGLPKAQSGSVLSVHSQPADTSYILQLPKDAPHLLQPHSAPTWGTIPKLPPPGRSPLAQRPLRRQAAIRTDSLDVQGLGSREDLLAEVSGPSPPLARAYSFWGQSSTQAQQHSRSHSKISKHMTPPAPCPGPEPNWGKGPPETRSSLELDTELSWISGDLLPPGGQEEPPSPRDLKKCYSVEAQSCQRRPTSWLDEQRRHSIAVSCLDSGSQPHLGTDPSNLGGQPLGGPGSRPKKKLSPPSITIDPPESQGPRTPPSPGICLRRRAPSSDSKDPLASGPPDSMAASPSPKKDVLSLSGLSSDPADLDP

Q: COC(=O)C(NC(=O)c1cn(CC2CCCCC2)c2ccccc12)C(C)(C)C (centres unmarked) [MDMB-CHMICA, methyl-2-[[1-(cyclohexylmethyl)indole-3-carbonyl]amino]-3,3-dimethylbutanoate] was tested. Which IC50 (hCav 3.2 [1]) did it give?
A: The IC50 was 1500 ± 200 nM.

Q: Which “% inhibition at 10 μM” value (hCav 3.1) does the source give for COC(=O)[C@@H](NC(=O)c1nn(CC2CCCCC2)c2ccccc12)C(C)(C)C [MDMB-CHMINACA] here?
A: Its value is greater than 80%.

Q: With COC(=O)C(NC(=O)c1nn(CC2CCCCC2)c2ccccc12)C(C)C (centres unmarked) [AMB-CHMINACA, methyl 2-((1-(cyclohexylmethyl)-1H-indazole-3-carbonyl)amino)-3-methylbutanoate] as the compound, how does the IC50 (hCav 3.2 [1]) read?
A: Its IC50 is 740 ± 300 nM.

Q: How did the inhibition at 10 µM (hCav 3.2 [2]) turn out when C=C(C)[C@@H]1CCC(C)=C[C@H]1c1c(O)cc(CCCCC)cc1O [CBD] was run?
A: The inhibition at 10 µM was 57 ± 5%.

Q: How did the inhibition at 10 µM (hCav 3.2 [2]) turn out when CCCCCc1cc(O)c2c(c1)OC(C)(C)[C@@H]1CCC(C)=C[C@@H]21 [Δ9-THC] was run?
A: The inhibition at 10 µM was 43 ± 2.4%.
